{
  "source": "paper PMC9241976",
  "about": "(Chemical Science, 2022)",
  "test_system": "MCF-7 cells",
  "test": "Sulforhodamine B assay, cytostatic and cytotoxic activity",
  "assay_type": "cell-based, human",
  "details": "LC50 versus GI50 of the same compound",
  "data": [
    {"substance": "polytheonamide B [Compound 5]", "values": [
      {"measurement": "difference between GI50 and LC50", "result": 19, "unit": "fold"}
    ]}
  ]
}
